These are literature values, as cited in US8859603B2, “Method for solubilizing metronidazole” (Galderma S.A., priority 2004, dated 2014).

For the data set the following is noted: no solubilizer.

The structures appear in SMILES notation.

For the molecule `Cc1ncc([N+](=O)[O-])n1CCO` [metronidazole, 1-(2-hydroxyethyl)-2-methyl-5-nitroimidazole], the “intrinsic solubility of metronidazole in an aqueous phase” value is reported as ~0.9 % (m/m).
